Source: patent US8507557B2, “Potentiators of insulin secretion” (Wisconsin Alumni Research Foundation, priority 2003, dated 2013)

Legend:
pancreatic β cells = experiment: Insulin secretion from pancreatic β cells with Ca2+ channel, α2-adrenergic and KATP modulators; conditions: for effect on insulin secretion elicited by glyburide: in the presence of glyburide; for effect on insulin secretion caused by glucose, KIC, αKG or DPD: α2-adrenergic agonists
Experimental: The physiological relevance of insulin secretion from pancreatic β cells elicited by αKG was evaluated.
Possible targets for the segretagogue action of αKG were examined by reevaluating targets implicated for KIC-dependent increases in insulin secretion, since the effects of KIC are likely exerted through transamination that yields αKG. […] To biochemically test this hypothesis the inventors used known drugs to modulate KATP and then determined whether αKG and DPD could still affect insulin secretion.

[1] = tested on: hyperexcitable Newgard Ins-1 cells; conditions: low (3 mM) or high (15 mM) glucose; 2 hours at 3 mM glucose with compound, then 2 hours
Experimental: The cells were incubated at 3 mM glucose with the indicated concentrations of either αKG or the DPD analog for 2 hours. Then, the cells were incubated for an additional 2 hours in either 3 or 15 mM glucose.

Ins-1 cell = Ins-1 cell insulin secretion assay, preliminary SAR study in high glucose (FIG. 1); type: cell-based, rat; conditions: presence of high glucose; Ins-1 cell assay
Experimental: The ability of various structurally-related compounds to alter insulin secretion in the presence of high glucose was tested in a preliminary structure-activity relationship (SAR) study to elucidate the molecular structures relevant to the insulin segretagogue potential of DPD and other αKG analogs. The compounds tested, shown in FIG. 1, are presented in order of decreasing ability to secrete insulin in an Ins-1 cell assay of the type described below in the Working Example. Each tested compound is commercially available and all were purchased from Sigma-Aldrich. Each compound contained two carboxylate groups. Variables evaluated in this study included the relative position of the carboxylate groups to one another, as well as the presence or absence of a nitrogen or sulfur group, additional R-groups, and esterified carboxy groups.

rat Ins-1 beta cell line = conditions: rat Ins-1 cells; effect not as dramatic as in responsive cell line
β cells = conditions: without affecting glucose metabolism; cited from earlier work
[2] = as reported in Diabetes Care 25:1271 (2002); cited from earlier work

In the case of CCOC(=O)c1ccnc(C(=O)OCC)c1 [DPD, 2,4-diethyl pyridine dicarboxylate], the “potency on insulin secretion relative to αKG” value (pancreatic β cells) is reported as “extremely potent relative to αKG”, the “effect on insulin secretion elicited by glyburide” value (shortened to “effect … by glyburide”) (pancreatic β cells) is reported as “augmented” and the “effect upon insulin secretion (fractional insulin release)” value [1] is reported as “marked positive effect”. The insulin secretion (Ins-1 cell) was about 14% and the “effect on insulin secretion (fractional insulin release)” value (rat Ins-1 beta cell line) was “increase in insulin secretion”.
For CC1=NS(=O)(=O)c2cc(Cl)ccc2N1 [Diazoxide], the “effect on ability of αKG, DPD and KIC to promote insulin release” value (pancreatic β cells; KATP agonist) was “completely suppresses”.
With CC(C)CC(=O)C(=O)O [KIC, α-ketoisocaproic acid] the “effect … by glyburide” value (pancreatic β cells) was “augmented”.
In the case of Clc1cccc(Cl)c1N=C1NCCN1 [clonidine], the “effect on insulin secretion caused by glucose, KIC, αKG or DPD” value (pancreatic β cells) is reported as “greatly suppressed”.
For CNC[C@H](O)c1ccc(O)c(O)c1 [epinephrine], the “effect on insulin secretion caused by glucose, KIC, αKG or DPD” value (pancreatic β cells) was “greatly suppressed”.
In the case of O=c1c(-c2ccc(O)cc2)coc2cc(O)cc(O)c12 [genistein], the “effect on KIC-stimulated insulin release” value (β cells) is listed as “inhibited”.
In the case of Cc1cnc(C(=O)NCCc2ccc(S(=O)(=O)NC(=O)NC3CCCCC3)cc2)cn1 [glipizide], the increase in insulin [2] is given as 54%.
In the case of COc1ccc(Cl)cc1C(=O)NCCc1ccc(S(=O)(=O)NC(=O)NC2CCCCC2)cc1 [glyburide], the insulin secretion elicited (pancreatic β cells; KATP antagonist) is reported as “elicits an insulin secretion”.
In the case of CCOc1cc(CC(=O)N[C@@H](CC(C)C)c2ccccc2N2CCCCC2)ccc1C(=O)O [repaglinide], the increase in insulin [2] is listed as 47%.
In the case of N#C/C(=C\c1ccc(O)c(O)c1)C(N)=S [tyrphostin A47], the “effect on KIC-stimulated insulin release” value (β cells) is given as “inhibited”.
In the case of O=C(O)CCC(=O)C(=O)O [αKG, α-ketoglutarate], the “effect … by glyburide” value (pancreatic β cells) is reported as “augmented”.
